Tested on: hypoxia-inducible endogenous VEGF expression in HeLa cells
Assay: Hypoxia-inducible endogenous VEGF expression, VEGF ELISA of conditioned media (dose-response EC50)
Assay type: cell-based
Conditions: HeLa cells under hypoxic conditions
Outline: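 Secreted VEGF was quantified by ELISA against a per-assay standard curve after HeLa cells spent 24-48 h in 1% O2, 5% CO2, N2 balance with or without compound. Across a series of, e.g., seven concentrations, percentage inhibition (max 100%, min 0%) gave EC50 and CC50 values.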

Compound	EC50 [nM]
Clc1ccc2[nH]c3c(c2c1)CCN(Cc1ccccc1)C3C1CCOC1 (centres unmarked) [Compound 264]	> 1000
Clc1ccc2[nH]c3c(c2c1)CCN(Cc1ccco1)C3c1ccco1 (centres unmarked) [Compound 265]	> 1000

Same assay, conditions: Homo sapiens, HeLa cells under hypoxic conditions

Compound	EC50 [nM]
Clc1ccc2[nH]c3c(c2c1)CCNC3c1ccc2c(c1)OCO2 (centres unmarked) [Compound 227]	200 to 1000
Clc1ccc2[nH]c3c(c2c1)CCN(Cc1ccco1)C3C1CCCCC1 (centres unmarked) [Compound 228]	200 to 1000
CCOC(=O)N1CCc2c([nH]c3ccc(F)cc23)C1c1ccc(Cl)cc1 (centres unmarked) [Compound 229]	> 1000
COCC(=O)N1CCc2c([nH]c3ccc(Br)cc23)C1c1ccccc1 (centres unmarked) [Compound 230]	> 1000
COc1ccc(C2NCCc3c2[nH]c2ccc(Cl)cc32)cc1 (centres unmarked) [Compound 231]	> 1000
Brc1ccc2[nH]c3c(c2c1)CCNC3c1ccc(OCc2ccccc2)cc1 (centres unmarked) [Compound 232]	> 1000
CC(C)(C)OC(=O)N[C@@H](Cc1ccccc1)C(=O)N1CCc2c([nH]c3ccc(Cl)cc23)C1c1ccccc1 (some centres unmarked) [Compound 233]	> 1000
O=c1c(C2NCCc3c2[nH]c2ccc(Cl)cc32)coc2ccccc12 (centres unmarked) [Compound 234]	> 1000
CCOC(=O)N1CCc2c([nH]c3ccccc23)C1c1ccc(OC)cc1 (centres unmarked) [Compound 235]	> 1000
COCCOCC(=O)N1CCc2c([nH]c3ccc(Br)cc23)C1c1ccc(Cl)cc1 (centres unmarked) [Compound 238]	> 1000
O=[N+]([O-])c1cccc(C2NCCc3c2[nH]c2ccc(Cl)cc32)c1 (centres unmarked) [Compound 239]	> 1000
CCOC(=O)N1CCc2c([nH]c3ccc(Cl)cc23)C1CC (centres unmarked) [Compound 240]	> 1000
COCCOCC(=O)N1CCc2c([nH]c3ccc(Br)cc23)C1c1ccc(Br)cc1 (centres unmarked) [Compound 241]	> 1000
COc1ccc(C2c3[nH]c4ccc(F)cc4c3CCN2C(=S)NC2CCCCC2)cc1 (centres unmarked) [Compound 242]	> 1000
CCOC(=O)N1CCc2[nH]c3ccc(Br)cc3c2C1 [Compound 243]	> 1000
COc1ccc(C2NC(C(=O)N3CCN(C(C)=O)CC3)Cc3c2[nH]c2ccc(Br)cc32)cc1 (centres unmarked) [Compound 244]	> 1000
COc1ccc(C2NC(C(=O)NC3CCCCC3)Cc3c2[nH]c2ccc(Br)cc32)cc1 (centres unmarked) [Compound 245]	> 1000
COc1ccc(C2NC(C(=O)Nc3ncc(C)s3)Cc3c2[nH]c2ccc(Br)cc32)cc1 (centres unmarked) [Compound 246]	> 1000
COc1ccc(C2NC(C(=O)N3CCOCC3)Cc3c2[nH]c2ccc(Br)cc32)cc1 (centres unmarked) [Compound 247]	> 1000
Clc1ccc2[nH]c3c(c2c1)CNCC3c1ccccc1 (centres unmarked) [Compound 248]	> 1000

Compound	EC50 [nM]
CCOC(=O)N1Cc2c([nH]c3ccc(Br)cc23)C(O)C1 (centres unmarked) [Compound 249]	> 1000
CCOC(=O)N1Cc2c([nH]c3ccc(Cl)cc23)C(c2ccccc2)C1 (centres unmarked) [Compound 250]	> 1000
Clc1ccc2[nH]c3c(c2c1)CCNC3Cc1ccccc1 (centres unmarked) [Compound 251]	> 1000
Brc1ccc2[nH]c3c(c2c1)CCNC3Cc1ccccc1 (centres unmarked) [Compound 252]	> 1000
Fc1ccc2[nH]c3c(c2c1)CCNC3c1cccc(Cl)c1 (centres unmarked) [Compound 253]	> 1000
Fc1ccc2[nH]c3c(c2c1)CCNC3c1ccc(Cl)cc1 (centres unmarked) [Compound 254]	> 1000
Cc1ccc(C2NCCc3c2[nH]c2ccc(F)cc32)cc1 (centres unmarked) [Compound 255]	> 1000
Fc1ccc2[nH]c3c(c2c1)CCNC3c1ccc(Br)cc1 (centres unmarked) [Compound 256]	> 1000
Fc1ccc2[nH]c3c(c2c1)CCNC3c1ccc(Cl)cc1Cl (centres unmarked) [Compound 257]	> 1000
COCCOCC(=O)N1CCc2c([nH]c3ccc(Br)cc23)C1c1ccc(C)cc1 (centres unmarked) [Compound 258]	> 1000
COCCOCC(=O)N1CCc2c([nH]c3ccc(Br)cc23)C1c1cccc(Cl)c1 (centres unmarked) [Compound 259]	> 1000
Clc1ccc2[nH]c3c(c2c1)CCN(Cc1ccccc1)C3c1nccs1 (centres unmarked) [Compound 262]	> 1000
CC(C)(C)c1cc(C2c3[nH]c4ccc(Cl)cc4c3CCN2Cc2ccccc2)cc(C(C)(C)C)c1O (centres unmarked) [Compound 263]	> 1000
Clc1ccc2[nH]c3c(c2c1)CCN(Cc1ccco1)C3c1nccs1 (centres unmarked) [Compound 267]	> 1000
Clc1ccc2[nH]c3c(c2c1)CCN(Cc1ccoc1)C3c1ccco1 (centres unmarked) [Compound 268]	> 1000
Clc1ccc2[nH]c3c(c2c1)CCN(Cc1ccoc1)C3c1nccs1 (centres unmarked) [Compound 270]	> 1000
Clc1ccc2[nH]c3c(c2c1)CCN(Cc1ccoc1)C3C1CCCCC1 (centres unmarked) [Compound 271]	> 1000
Clc1ccc2[nH]c3c(c2c1)CCN(Cc1ccccc1)C3c1ccncc1 (centres unmarked) [Compound 272]	> 1000
Clc1ccc2[nH]c3c(c2c1)CCN(Cc1ccccc1)C3c1c[nH]c2ccc(Br)cc12 (centres unmarked) [Compound 273]	> 1000
Clc1ccc2[nH]c3c(c2c1)CCN(Cc1ccccc1)C3c1cc2c(cc1Cl)OCO2 (centres unmarked) [Compound 274]	> 1000

Compound	EC50 [nM]
Clc1ccc2[nH]c3c(c2c1)CCN(Cc1ccccc1)C3c1ccccn1 (centres unmarked) [Compound 275]	> 1000
Clc1ccc2[nH]c3c(c2c1)CCN(Cc1ccccc1)C3c1cccnc1 (centres unmarked) [Compound 276]	> 1000
Clc1ccc2[nH]c3c(c2c1)CCNC3c1ccc(-n2ccnc2)cc1 (centres unmarked) [Compound 277]	> 1000
CCOC(=O)N1CCc2c([nH]c3ccc(OCc4ccccc4)cc23)C1c1ccc(OC)cc1 (centres unmarked) [Compound 278]	> 1000
CCOC(=O)N1CCc2c([nH]c3ccc(Cl)cc23)C1c1ccc(OCCN2CCOCC2)cc1 (centres unmarked) [Compound 279, 6-Chloro-1-[4-(2-morpholin-4-yl-ethoxy)-phenyl]-1,3,4,9-tetrahydro-b-carboline-2-carboxylic acid ethyl ester]	< 8
COc1ccc(C2c3[nH]c4ccc(F)cc4c3CCN2C(=O)NC2CCCCC2)cc1 (centres unmarked) [Compound 283]	> 1000
CCOC(=O)N1CCc2c([nH]c3ccc(F)cc23)C1c1cccc(Cl)c1 (centres unmarked) [Compound 284]	> 1000
COc1ccc2[nH]c3c(c2c1)CCNC3c1ccc(OCc2ccccc2)cc1 (centres unmarked) [Compound 285]	> 1000
Cc1cccc(C2NCCc3c2[nH]c2ccc(Cl)cc32)c1 (centres unmarked) [Compound 286]	> 1000
Clc1ccc2[nH]c3c(c2c1)CCNC3C1CCCCC1 (centres unmarked) [Compound 287]	> 1000
c1ccc(COc2ccc(C3NCCc4c3[nH]c3ccc(OCc5ccccc5)cc43)cc2)cc1 (centres unmarked) [Compound 288]	> 1000
COc1ccc(C2c3[nH]c4ccccc4c3CCN2C(=S)NC(C)C)cc1 (centres unmarked) [Compound 289]	> 1000
COCCNC(=S)N1CCc2c([nH]c3ccccc23)C1c1ccc(OC)cc1 (centres unmarked) [Compound 290]	> 1000
Oc1cccc(C2NCCc3c2[nH]c2ccc(Cl)cc32)c1 (centres unmarked) [Compound 291]	> 1000
COc1ccc(C2NCCc3c2[nH]c2ccc(OCc4ccccc4)cc32)cc1 (centres unmarked) [Compound 292]	> 1000
COC(=O)N1CCc2c([nH]c3ccc(OCc4ccccc4)cc23)C1c1ccccc1 (centres unmarked) [Compound 293]	> 1000
CC(=O)Nc1ccc(C2NCCc3c2[nH]c2ccc(Cl)cc32)cc1 (centres unmarked) [Compound 294]	> 1000
COc1ccc(C2c3[nH]c4ccccc4c3CCN2C(=O)NC2CCCCC2)cc1 (centres unmarked) [Compound 295]	> 1000
Oc1ccc(C2NCCc3c2[nH]c2ccc(Cl)cc32)cc1 (centres unmarked) [Compound 296]	> 1000
CN(C)c1ccc(C2NCCc3c2[nH]c2ccc(Cl)cc32)cc1 (centres unmarked) [Compound 297]	> 1000

From US8076352B2, “Administration of carboline derivatives useful in the treatment of cancer and other diseases” (PTC Therapeutics, Inc., priority 2004, dated 2011)
